According to patent publication US20230172204A1 (BASF SE, priority 2020, published 2023):

Assays:
[1] = tested on: Phakopsora pachyrhizi (F129L); experiment: Protective control of soybean rust on soybeans (PHAKPA P2); type: in vivo; conditions: for % PHAKPA (F129L) Disease level P2 at 4 ppm: protective P2, 4 ppm; for % PHAKPA (F129L) Disease level P2 at 4 ppm / % PHAKPA (F129L) Disease level P2 at 16 ppm: soybean rust F129L; for % PHAKPA (F129L) Disease level P2 at 16 ppm: protective P2, 16 ppm
[2] = tested on: Phakopsora pachyrhizi (F129L); experiment: Protective control of soybean rust on soybeans (PHAKPA P6); type: in vivo; conditions: for % PHAKPA (F129L) Disease level P6 at 4 ppm: protective P6, 4 ppm; for % PHAKPA (F129L) Disease level P6 at 4 ppm / % PHAKPA (F129L) Disease level P6 at 16 ppm: soybean rust F129L; for % PHAKPA (F129L) Disease level P6 at 16 ppm: protective P6, 16 ppm
[3] = P2 protective, % diseased leaf area
[4] = P6 protective, % diseased leaf area

SMILES | % PHAKPA (F129L) Disease level P2 at 4 ppm [1] | % PHAKPA (F129L) Disease level P2 at 16 ppm [1] | % PHAKPA (F129L) Disease level P6 at 4 ppm [2] | % PHAKPA (F129L) Disease level P6 at 16 ppm [2] | PHAKPA (F129L) Disease level (%) P2 at 4 ppm [1, 3] | PHAKPA (F129L) Disease level (%) P6 at 4 ppm [2, 4] | PHAKPA (F129L) Disease level (%) P2 at 16 ppm ([1]; P2 protective, 16 ppm, % diseased leaf area) | PHAKPA (F129L) Disease level (%) P6 at 16 ppm ([2]; P6 protective, 16 ppm, % diseased leaf area)
CNC(=O)/C(=N/OC)c1cccc(C)c1CO/N=C(\C)c1ccccc1F [Ex. 2, (2E)-2-[2-[[(E)-1-(2-fluorophenyl)ethylideneamino]oxymethyl]-3-methyl-phenyl]-2-methoxyimino-N-methyl-acetamide] | 5% | 0% | 26% | 1% | – | – | – | –
CCc1cc(/C(C)=N/OCc2c(C)cccc2/C(=N\OC)C(=O)OC)cc(C(F)(F)F)c1 [compound 146] | 73% | 12% | 77% | 48% | – | – | – | –
CNC(=O)/C(=N/OC)c1cccc(C)c1CO/N=C(\C)c1cccc(-c2cc(C)on2)c1 [compound 42] | 60% | 23% | 60% | 20% | – | – | – | –
CO/C=C(/C(=O)OC)c1cccc(C)c1CO/N=C(\C)c1c(Cl)cc(Cl)cc1OC(F)(F)F [compound 436] | 70% | 15% | 73% | 27% | – | – | – | –
CNC(=O)/C(=N/OC)c1cccc(C)c1CO/N=C(\C(C)=O)c1cccc(C(F)(F)F)c1 [compound 93] | 83% | 32% | 43% | 37% | – | – | – | –
CNC(=O)/C(=N/OC)c1cccc(C)c1CO/N=C(\C)c1ccc(OC)cc1 [compound 164] | 5% | 0% | 27% | 0% | – | – | – | –
CNC(=O)/C(=N/OC)c1ccccc1CO/N=C(\C)c1cccc(Cl)c1 [reference compound] | – | – | – | – | 43% | 80% | – | –
CO/N=C(/C(=O)OC)c1cccc(C)c1CO/N=C(\C)c1cc(Cl)c(F)c(Cl)c1 [compound 246] | 40% | 15% | 77% | 7% | – | – | – | –
CNC(=O)/C(=N/OC)c1cccc(C)c1CO/N=C(\C)c1c(Cl)cccc1Cl [compound 173] | 100% | 53% | 97% | 17% | – | – | – | –
CNC(=O)/C(=N/OC)c1cccc(C)c1CO/N=C(\C)c1ccccc1Br [Ex. 120] | 43% | 4% | 90% | 8% | – | – | 6% | 15%
CO/N=C(/C(=O)OC)c1cccc(C)c1CO/N=C(\C)c1ccc(-c2ccccc2)cc1 [compound 111] | 28% | 8% | 46% | 10% | – | – | – | –
CO/N=C(/C(=O)OC)c1cccc(C)c1CO/N=C(\C)c1cc(C#N)cc(C(F)(F)F)c1 [compound 48] | 100% | 80% | 100% | 67% | – | – | – | –
CNC(=O)/C(=N/OC)c1cccc(C)c1CO/N=C(\C)c1cc(Cl)ccc1Cl [Ex. 130] | 20% | 1% | 40% | 1% | 33% | 67% | – | –
CNC(=O)/C(=N/OC)c1cccc(C)c1CO/N=C(\C)c1cccc(F)c1F [compound 178] | 6% | 0% | 2% | 0% | – | – | – | –
